The values below come from BindingDB's records for doi:10.1016/S0960-894X(96)00248-X (1996).

Each structure is given as a SMILES string.

This experiment can be described thus: Inhibitory activity against gastrin receptor.
As usually defined, the IC50 is the concentration that inhibits the measured activity by half. Consider `Cc1cccc(NC(=O)NC2N=C(c3ccccc3)c3ccccc3N(CC(=O)NCCCOc3cccc(CN4CCCCC4)c3)C2=O)c1` (centres undefined) [2-[2-Oxo-5-phenyl-3-(3-m-tolyl-ureido)-2,3-dihydro-benzo[e][1,4]diazepin-1-yl]-N-[3-(3-piperidin-1-ylmethyl-phenoxy)-propyl]-acetamide], for which the IC50 was determined as 155 nM. That is a sub-micromolar value. Molecule `Cc1cccc(NC(=O)NC2N=C(c3ccccc3)c3ccccc3N(CC(=O)NCC(=O)NCCCOc3cccc(CN4CCCCC4)c3)C2=O)c1` (centres undefined) [2-[2-Oxo-5-phenyl-3-(3-m-tolyl-ureido)-2,3-dihydro-benzo[e][1,4]diazepin-1-yl]-N-{[3-(3-piperidin-1-ylmethyl-phenoxy)-propylcarbamoyl]-methyl}-acetamide] came in with an IC50 of 790 nM. `Cc1cccc(NC(=O)NC2N=C(c3cccc(OCC(=O)NCCCOc4cccc(CN5CCCCC5)c4)c3)c3ccccc3N(C)C2=O)c1` (centres undefined) [2-{3-[1-Methyl-2-oxo-3-(3-m-tolyl-ureido)-2,3-dihydro-1H-benzo[e][1,4]diazepin-5-yl]-phenoxy}-N-[3-(3-piperidin-1-ylmethyl-phenoxy)-propyl]-acetamide] registered an IC50 of 570 nM. The molecule `Cc1cccc(NC(=O)NC2N=C(c3cccc(OCC(=O)NCC(=O)NCCCOc4cccc(CN5CCCCC5)c4)c3)c3ccccc3N(C)C2=O)c1` (centres undefined) [2-{3-[1-Methyl-2-oxo-3-(3-m-tolyl-ureido)-2,3-dihydro-1H-benzo[e][1,4]diazepin-5-yl]-phenoxy}-N-{[3-(3-piperidin-1-ylmethyl-phenoxy)-propylcarbamoyl]-methyl}-acetamide] yielded an IC50 of 63 nM. As for `CN1C(=O)[C@H](NC(=O)Nc2cccc(CC(=O)NCCCOc3cccc(CN4CCCCC4)c3)c2)N=C(c2ccccc2)c2ccccc21` [2-{3-[3-((R)-1-Methyl-2-oxo-5-phenyl-2,3-dihydro-1H-benzo[e][1,4]diazepin-3-yl)-ureido]-phenyl}-N-[3-(3-piperidin-1-ylmethyl-phenoxy)-propyl]-acetamide], the figure is 230 nM. Consider `Cc1cccc(NC(=O)NC2N=C(c3cccc(OCC(=O)NCCC(=O)NCCCOc4cccc(CN5CCCCC5)c4)c3)c3ccccc3N(C)C2=O)c1` (centres undefined) [3-(2-{3-[1-Methyl-2-oxo-3-(3-m-tolyl-ureido)-2,3-dihydro-1H-benzo[e][1,4]diazepin-5-yl]-phenoxy}-acetylamino)-N-[3-(3-piperidin-1-ylmethyl-phenoxy)-propyl]-propionamide], for which the IC50 turned out to be 200 nM. For `CN1C(=O)[C@H](NC(=O)Nc2cccc(CC(=O)NCCC(=O)NCCCOc3cccc(CN4CCCCC4)c3)c2)N=C(c2ccccc2)c2ccccc21` [3-(2-{3-[3-((R)-1-Methyl-2-oxo-5-phenyl-2,3-dihydro-1H-benzo[e][1,4]diazepin-3-yl)-ureido]-phenyl}-acetylamino)-N-[3-(3-piperidin-1-ylmethyl-phenoxy)-propyl]-propionamide] the value was 136 nM. For `CN1C(=O)[C@H](NC(=O)Nc2cccc(C(=O)NCCCOc3cccc(CN4CCCCC4)c3)c2)N=C(c2ccccc2)c2ccccc21` [3-[3-((R)-1-Methyl-2-oxo-5-phenyl-2,3-dihydro-1H-benzo[e][1,4]diazepin-3-yl)-ureido]-N-[3-(3-piperidin-1-ylmethyl-phenoxy)-propyl]-benzamide], the IC50 came out at 550 nM.

`Cc1cccc(NC(=O)NC2N=C(c3ccccc3)c3ccccc3N(CC(=O)NCCC(=O)NCCCOc3cccc(CN4CCCCC4)c3)C2=O)c1` (centres undefined) [3-{2-[2-Oxo-5-phenyl-3-(3-m-tolyl-ureido)-2,3-dihydro-benzo[e][1,4]diazepin-1-yl]-acetylamino}-N-[3-(3-piperidin-1-ylmethyl-phenoxy)-propyl]-propionamide] yielded an IC50 of 185 nM. For `Cc1cccc(NC(=O)NC2N=C(c3cccc(OCC(=O)NCCCC(=O)NCCCOc4cccc(CN5CCCCC5)c4)c3)c3ccccc3N(C)C2=O)c1` (centres undefined) [4-(2-{3-[1-Methyl-2-oxo-3-(3-m-tolyl-ureido)-2,3-dihydro-1H-benzo[e][1,4]diazepin-5-yl]-phenoxy}-acetylamino)-N-[3-(3-piperidin-1-ylmethyl-phenoxy)-propyl]-butyramide] the value was 60 nM; for `CN1C(=O)[C@H](NC(=O)Nc2cccc(CC(=O)NCCCC(=O)NCCCOc3cccc(CN4CCCCC4)c3)c2)N=C(c2ccccc2)c2ccccc21` [4-(2-{3-[3-((R)-1-Methyl-2-oxo-5-phenyl-2,3-dihydro-1H-benzo[e][1,4]diazepin-3-yl)-ureido]-phenyl}-acetylamino)-N-[3-(3-piperidin-1-ylmethyl-phenoxy)-propyl]-butyramide], 115 nM. For `Cc1cccc(NC(=O)NC2N=C(c3ccccc3)c3ccccc3N(CC(=O)NCCCC(=O)NCCCOc3cccc(CN4CCCCC4)c3)C2=O)c1` (centres undefined) [4-{2-[2-Oxo-5-phenyl-3-(3-m-tolyl-ureido)-2,3-dihydro-benzo[e][1,4]diazepin-1-yl]-acetylamino}-N-[3-(3-piperidin-1-ylmethyl-phenoxy)-propyl]-butyramide] the value was 210 nM; for `Cc1cccc(NC(=O)NC2N=C(c3cccc(OCC(=O)NCCCCCC(=O)NCCCOc4cccc(CN5CCCCC5)c4)c3)c3ccccc3N(C)C2=O)c1` (centres undefined) [6-(2-{3-[1-Methyl-2-oxo-3-(3-m-tolyl-ureido)-2,3-dihydro-1H-benzo[e][1,4]diazepin-5-yl]-phenoxy}-acetylamino)-hexanoic acid [3-(3-piperidin-1-ylmethyl-phenoxy)-propyl]-amide], 32 nM.

Consider `CN1C(=O)[C@H](NC(=O)Nc2cccc(CC(=O)NCCCCCC(=O)NCCSCc3csc(N=C(N)N)n3)c2)N=C(c2ccccc2)c2ccccc21` [6-(2-{3-[3-((R)-1-Methyl-2-oxo-5-phenyl-2,3-dihydro-1H-benzo[e][1,4]diazepin-3-yl)-ureido]-phenyl}-acetylamino)-hexanoic acid [2-(2-guanidino-thiazol-4-ylmethylsulfanyl)-ethyl]-amide], for which it took 45 nM to reach half-maximal inhibition (IC50). As for `CN1C(=O)[C@H](NC(=O)Nc2cccc(CC(=O)NCCCCCC(=O)NCCCOc3cccc(CN4CCCCC4)c3)c2)N=C(c2ccccc2)c2ccccc21` [6-(2-{3-[3-((R)-1-Methyl-2-oxo-5-phenyl-2,3-dihydro-1H-benzo[e][1,4]diazepin-3-yl)-ureido]-phenyl}-acetylamino)-hexanoic acid [3-(3-piperidin-1-ylmethyl-phenoxy)-propyl]-amide], the figure is 110 nM. In turn, `Cc1cccc(NC(=O)NC2N=C(c3ccccc3)c3ccccc3N(CC(=O)NCCCCCC(=O)NCCCOc3cccc(CN4CCCCC4)c3)C2=O)c1` (centres undefined) [6-{2-[2-Oxo-5-phenyl-3-(3-m-tolyl-ureido)-2,3-dihydro-benzo[e][1,4]diazepin-1-yl]-acetylamino}-hexanoic acid [3-(3-piperidin-1-ylmethyl-phenoxy)-propyl]-amide] gave an IC50 of 16 nM. This IC50 lies about 6.9-fold lower than the previous one.

`Cc1cccc(NC(=O)NC2N=C(c3ccccc3)c3ccccc3N(CC(=O)NCCSCc3csc(N=C(N)N)n3)C2=O)c1` (centres undefined) [N-[2-(2-Guanidino-thiazol-4-ylmethylsulfanyl)-ethyl]-2-[2-oxo-5-phenyl-3-(3-m-tolyl-ureido)-2,3-dihydro-benzo[e][1,4]diazepin-1-yl]-acetamide] displayed an IC50 of 3 nM. This IC50 lies about 5.3-fold lower than the previous one. For `Cc1cccc(NC(=O)NC2N=C(c3cccc(OCC(=O)NCCSCc4csc(N=C(N)N)n4)c3)c3ccccc3N(C)C2=O)c1` (centres undefined) [N-[2-(2-Guanidino-thiazol-4-ylmethylsulfanyl)-ethyl]-2-{3-[1-methyl-2-oxo-3-(3-m-tolyl-ureido)-2,3-dihydro-1H-benzo[e][1,4]diazepin-5-yl]-phenoxy}-acetamide] the value was 135 nM; for `CN1C(=O)[C@H](NC(=O)Nc2cccc(CC(=O)NCCSCc3csc(N=C(N)N)n3)c2)N=C(c2ccccc2)c2ccccc21` [N-[2-(2-Guanidino-thiazol-4-ylmethylsulfanyl)-ethyl]-2-{3-[3-((R)-1-methyl-2-oxo-5-phenyl-2,3-dihydro-1H-benzo[e][1,4]diazepin-3-yl)-ureido]-phenyl}-acetamide], 168 nM. As for `Cc1cccc(NC(=O)NC2N=C(c3cccc(OCC(=O)NCCC(=O)NCCSCc4csc(N=C(N)N)n4)c3)c3ccccc3N(C)C2=O)c1` (centres undefined) [N-[2-(2-Guanidino-thiazol-4-ylmethylsulfanyl)-ethyl]-3-(2-{3-[1-methyl-2-oxo-3-(3-m-tolyl-ureido)-2,3-dihydro-1H-benzo[e][1,4]diazepin-5-yl]-phenoxy}-acetylamino)-propionamide], inhibition was half-maximal at 25 nM (IC50). Turning to `CN1C(=O)[C@H](NC(=O)Nc2cccc(CC(=O)NCCC(=O)NCCSCc3csc(N=C(N)N)n3)c2)N=C(c2ccccc2)c2ccccc21` [N-[2-(2-Guanidino-thiazol-4-ylmethylsulfanyl)-ethyl]-3-(2-{3-[3-((R)-1-methyl-2-oxo-5-phenyl-2,3-dihydro-1H-benzo[e][1,4]diazepin-3-yl)-ureido]-phenyl}-acetylamino)-propionamide], the IC50 is 80 nM. This IC50 is about 3.2-fold higher than that of the molecule before. Consider `Cc1cccc(NC(=O)NC2N=C(c3ccccc3)c3ccccc3N(CC(=O)NCCC(=O)NCCSCc3csc(N=C(N)N)n3)C2=O)c1` (centres undefined) [N-[2-(2-Guanidino-thiazol-4-ylmethylsulfanyl)-ethyl]-3-{2-[2-oxo-5-phenyl-3-(3-m-tolyl-ureido)-2,3-dihydro-benzo[e][1,4]diazepin-1-yl]-acetylamino}-propionamide], for which the IC50 amounted to 75 nM.

Molecule `Cc1cccc(NC(=O)NC2N=C(c3cccc(OCC(=O)NCCCC(=O)NCCSCc4csc(N=C(N)N)n4)c3)c3ccccc3N(C)C2=O)c1` (centres undefined) [N-[2-(2-Guanidino-thiazol-4-ylmethylsulfanyl)-ethyl]-4-(2-{3-[1-methyl-2-oxo-3-(3-m-tolyl-ureido)-2,3-dihydro-1H-benzo[e][1,4]diazepin-5-yl]-phenoxy}-acetylamino)-butyramide] gave an IC50 of 14 nM. For `CN1C(=O)[C@H](NC(=O)Nc2cccc(CC(=O)NCCCC(=O)NCCSCc3csc(N=C(N)N)n3)c2)N=C(c2ccccc2)c2ccccc21` [N-[2-(2-Guanidino-thiazol-4-ylmethylsulfanyl)-ethyl]-4-(2-{3-[3-((R)-1-methyl-2-oxo-5-phenyl-2,3-dihydro-1H-benzo[e][1,4]diazepin-3-yl)-ureido]-phenyl}-acetylamino)-butyramide] the value was 240 nM.
